# Source: patent US8759364B2, “Methods of treating bone mass diseases” (The Trustees of Columbia University in the City of New York, priority 2008, dated 2014)
# Where “and” joins values, the source holds several entries; their conditions need not be identical. Equal values may be shown once. Read-outs that look alike come from different tables or passages of the source.
# Columns and labels:
# rb 5-HT1B receptors = rb 5-HT1B receptors (Oryctolagus cuniculus, UniProt P49144); conditions: cited from earlier work
# primary osteoblasts = assay: Real-time PCR of cyclin and osteoblast-specific gene expression in primary osteoblasts treated with serotonin; type: cell-based, mouse; conditions: serotonin 50 to 100 μM, 24 hr, versus vehicle, FIG. 8B
# Method: To test whether serotonin regulates the expression of cyclins in osteoblasts, a real-time PCR analysis of cyclin expression in primary osteoblasts treated with serotonin or vehicle was performed. […] In contrast, expression of Runx2, Osteocalcin and Type I collagen was not modified (FIG. 8B).
# Calvaria osteoblasts were extracted by triple collagenase/trypsine digestion from 4 day-old CD1 pups and differentiated with ascorbic acid as previously described (Ducy et al., 2000, Cell 100:197-207).
# (§1) Osteoblasts were treated in serum-free medium with vehicle or Serotonin (50 to 100 μM, Sigma) for 24 hr. Total RNA were extracted with Trizol (Invitrogen). cDNA were generated using the ABI Reverse transcriptase system and random hexanucleotide primers. Real-time PCR was performed using superarray primers on a Stratagene real time PCR cycler and Actin expression was used as endogenous control. Chromatin immunoprecipitation assays (ChIP) were performed by standard procedures using primary osteoblasts. Microarray analysis was performed as described previously (Glass et al., 2005, Dev. Cell 8:751-764).
# CREB = CREB phosphorylation (Western blot) and CREB binding to Cyclin D1 promoter (ChIP) in primary osteoblasts treated with serotonin; type: cell-based, mouse
# Method: Decreased expression of Cyclin D1 is a major feature of both Lrp5 deficiency and serotonin treatment of osteoblasts (FIGS. 1 and 8). One transcription factor that is known to modulate the expression of cyclin genes and is expressed in osteoblasts is CREB (Fu et al., 2005, Cell 122:803-815). Therefore, whether serotonin could decrease CREB activity in these cells was tested. […] Furthermore, a CREB binding site in the Cyclin D1 mouse promoter was identified and it was shown using ChIP assays that serotonin decreased binding of CREB to this promoter (FIG. 9B). These two observations raise the hypothesis that CREB could be mediating serotonin action on osteoblasts.
# as §1
# Osteoblasts were treated in serum-free medium with vehicle or Serotonin (50 to 100 μM, Sigma) for 24 hr. […]
# [1] = tested on: peripheral serotonin production; assay: Pilot study of tryptophan hydroxylase inhibitors on peripheral serotonin production in ovariectomized mice, Example 12; type: in vivo; conditions: for effect on serotonin levels: oral (gavage) twice a day, dose not given
# Method: (§2) 6-week old C57Bl/6 inbred female mice, weighing 12-14 g, were used in the experiments. Animals were housed under 12 h light/12 h dark conditions in a room with controlled temperature (22° C.) and humidity (60%). Mice had ad libitum access to food and water, and were used after a minimum of 4 days of acclimatization to the housing conditions. All experiments were conducted following Columbia University Guidelines for the Animal Use and Care of laboratory mice.
# Animals were separated into different groups one day prior to the experiments. Mice were ovariectomized (OVX) under anaesthesia (Avertin). Compounds were fed orally (Gavage) twice a day at 1700 h and at 1100 h for the pilot study while for the long term study compounds were given at 1700 h once a day. […] This route creates two potential barriers for the compound to reach the brain. […] Control animals received the same volume of vehicle. Blood was collected through heart puncture on isofluorane-anaesthesized animals, allowed to clot for 5 minutes on ice and then serum was separated, snap chilled in liquid nitrogen and frozen at −80° C. till analyzed. Mice were observed daily for any physical or behavioral abnormality during the course of investigation.
# • Group 1: Vehicle • Group 2: Compound 1 • Group 3: Compound 2 • Group 4: Compound 3 • Group 5: Compound 4 (LP-533401) Experiment II: Effect of Compounds 1 and 4 on Protection from OVX-Induced Bone Loss Protocol 1: Gavage Feeding of the Compounds Will be Started 1 Day after OVX for 6 Weeks • Group 1: Sham treatment • Group 2: OVX • Group 3: OVX+Compound 1 (250 mg/kg) • Group 4: OVX+Compound 1 (500 mg/kg) • Group 5: OVX+Compound 4 (250 mg/kg) Protocol 2: Gavage Feeding of the Compounds Will be Started 2 Weeks after OVX for 6 Weeks • Group 1: Sham treatment • Group 2: OVX • Group 3: OVX+Compound 1 (250 mg/kg) • Group 4: OVX+Compound 1 (500 mg/kg) • Group 5: OVX+Compound 4 (250 mg/kg) Protocol 3: Gavage Feeding of the Compounds Will be Started 4 Weeks after OVX for 6 Weeks • Group 1: Sham treatment • Group 2: OVX • Group 3: OVX+Compound 1 (250 mg/kg) • Group 4: OVX+Compound 1 (500 mg/kg) • […] Serotonin Measurement in Serum
# The Serotonin ELISA kit obtained from the Fitzgerald company was used to measure derivatized serotonin from serum. Derivatization is part of the sample preparation. Serotonin present in the serum was first quantitatively acylated using the acylation reagent into N-Acylserotonin. The principle of the assay is based on competitive ELISA, wherein serotonin that is bound to the solid phase of the plate and the N-acylserotonin compete for the fixed number of antiserum binding sites. When the reaction is in equilibrium, free antigen and free antigen-antiserum complexes are removed by washing. The antibody bound to the solid phase serotonin is then detected by anti-rabbit/peroxidase. The substrate TMB/Peroxidase reaction is read at 450 nm. The amount of antibody bound to the solid phase serotonin is inversely proportional to the concentration of serotonin in the sample.
# We used Catechol-3,6-bis methyleneiminodiacetic acid [(CBMIDA) Compound 1: basic structure is a EDTA-like compound and the catechol ring is at the center)] synthesized at the Columbia University Chemistry division and para-Chlorophenylalanine (pCPA) obtained from Sigma Aldrich Corp. for our experiments. Compounds were dissolved with twice molar solution of NaHCO3 in water and given to mice orally at 250 and 500 mg/kg/dose. Compounds 2 and 3 were dissolved in water.
# [2] = tested on: Serotonin levels in the small intestine; conditions: mice, twice per day over 3-4 days, about 30-90 mg/kg; after six consecutive doses; cited from earlier work
# brain-derived serotonin = conditions: mice, twice per day over 3-4 days, about 30-90 mg/kg; cited from earlier work
# peripheral serotonin = assay: Effect of oral CBMIDA on peripheral serotonin production in mice (serum serotonin ELISA), Example 1; type: in vivo; conditions: for reduction of peripheral serotonin measured in serum: 4 week old mice
# Method: The ability of selective TPH1 inhibitor CBMIDA to reduce peripheral serotonin measured in serum was tested. Either 250 or 500 mg/kg doses of CBMIDA were administered orally twice in 20 hours to 4 week old mice, 4-5 mice per group. As a control, some mice were untreated and some received 250 mg/kg pCPA orally. […] CBMIDA has been reported to be an EDTA analog that increases osteoid volume in beagle dogs and induces proliferation of rat calvarial-derived osteoblasts in vitro (Xie, et al., Bioorganic & Medicinal Chemistry Letters 15 (2005) 3267-3270, incorporated herein by reference in its entirety).
# as §2, with “One month” for “6-week”, “male” for “female”, “15-16 g” for “12-14 g,”
# Before the experiments, animals were separated into individual cages one day prior to the experiment. Compounds were fed orally (gavage) to the mouse, calculated according to the weight of the mouse, twice a day at 1700 h and at 1100 h. […] This route created two potential barriers for the compound to reach the brain. […] Control animals received the same volume of vehicle. Blood was collected through heart puncture on isofluorane-anaesthesized animals and allowed to clot for 5 minutes on ice. The serum was separated, snap chilled in liquid nitrogen and frozen at −80° C. till analyzed. Brainstems from all the animals were collected and processed for brain serotonin measurement through HPLC.
# The Serotonin ELISA kit obtained from the Fitzgerald company was used to measure derivatized serotonin from serum. Derivatization is part of the sample preparation. Serotonin present in the serum was first quantitatively acylated into N-Acylserotonin using the acylation reagent. The principle of the assay is based on competitive ELISA, wherein serotonin that is bound to the solid phase of the plate and the N-acylserotonin compete for the fixed number of antiserum binding sites. When the reaction is in equilibrium, free antigen and free antigen-antiserum complexes are removed by washing.
# The antibody bound to the solid phase serotonin is then detected using antirabbit/peroxidase. The substrate TMB/Peroxidase reaction is read at 450 nm. The amount of antibody bound to the solid phase serotonin is inversely proportional to the concentration of serotonin in the sample.
# Catechol-3,6-bis methyleneiminodiacetic acid (CBMIDA) (basic structure is an EDTA-like compound and the catechol ring is at the centre) synthesized at the Columbia University Chemistry division, and para-chlorophenylalanine (pCPA) obtained from Sigma Aldrich Corp. were used. Each compound was dissolved with twice molar solution of NaHCO3 in water and given to mouse orally at 250 and 500 mg/kg/dose.
# [3] = tested on: rat calvarial-derived osteoblasts; conditions: in vitro; cited from earlier work
# [4] = given orally, cited from earlier work
# osteoid volume = conditions: beagle dogs; cited from earlier work
# Chain of rb 5-HT1B receptors (P49144 whole entry): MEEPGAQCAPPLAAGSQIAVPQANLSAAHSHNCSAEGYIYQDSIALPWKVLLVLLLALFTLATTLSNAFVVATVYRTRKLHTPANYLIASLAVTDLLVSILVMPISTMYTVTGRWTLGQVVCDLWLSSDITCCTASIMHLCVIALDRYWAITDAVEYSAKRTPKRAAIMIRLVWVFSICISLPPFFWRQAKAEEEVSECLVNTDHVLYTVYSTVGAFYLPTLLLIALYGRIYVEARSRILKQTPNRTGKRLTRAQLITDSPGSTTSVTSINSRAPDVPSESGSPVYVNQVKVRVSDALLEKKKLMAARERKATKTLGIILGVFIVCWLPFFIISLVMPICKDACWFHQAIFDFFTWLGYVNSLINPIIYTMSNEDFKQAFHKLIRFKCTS
smiles,measurement,setting,value
CSc1ccc2c(c1)C(N1CCN(C)CC1)Cc1ccccc1S2 (stereo not drawn) [methiothepin],behaviour as antagonist,rb 5-HT1B receptors,"as silent, competitive"
"NCCc1c[nH]c2ccc(O)cc12 [serotonin, 5-hydroxytryptamine]",expression of Cyclin D1 and D2,primary osteoblasts,decreased
same,"expression of Runx2, Osteocalcin and Type I collagen",primary osteoblasts,not modified
same,CREB phosphorylation,CREB; FIG. 9A,significantly decreased
same,binding of CREB to the Cyclin D1 promoter (ChIP),CREB; FIG. 9B,decreased
O=C(c1ccc(F)cc1)C1CCN(CCn2c(=O)[nH]c3ccccc3c2=O)CC1 [ketanserin],behaviour as antagonist,rb 5-HT1B receptors,"as silent, competitive"
NC(=O)CN(CC(=O)O)Cc1ccc(CN(CC(N)=O)CC(=O)O)c(O)c1O [Compound 2],effect on serotonin levels,[1]; pilot study,minimal effect
CCOC(=O)[C@@H](N)Cc1ccc(-c2cc(OC(c3ccc(-c4cccc(F)c4)cc3)C(F)(F)F)nc(N)n2)cc1 (stereo partly drawn) [LP-615819],Serotonin levels in the small intestine,[2],significantly lowered
same,brain-derived serotonin,brain-derived serotonin,unchanged
CN1CCc2cccc3c2[C@H]1Cc1cc(CN(CC(=O)O)CC(=O)O)c(O)c(O)c1-3 [Compound 3],effect on serotonin levels,[1]; pilot study,decreased the serotonin levels dramatically
same,toxicity to the animals (looked very lethargic and sick),"[1]; oral, pilot study",toxic
"O=C(O)CN(CC(=O)O)Cc1ccc(CN(CC(=O)O)CC(=O)O)c(O)c1O [CBMIDA, Catechol-3,6-bis methyleneiminodiacetic acid]",decrease of serotonin serum levels,"[1]; 250 mg/kg, oral, compared with 500 mg/kg",lesser extent
same,serotonin serum levels decreased to % below normal,"[1]; 500 mg/kg twice daily, oral, FIG. 15",80%
same,dose response of serotonin levels,"[1]; different doses compared to control animals, FIG. 15",dose response curve
same,reduction of peripheral serotonin measured in serum,peripheral serotonin; 250 mg/kg orally twice in 20 hours,~45%
same,decrease of serotonin serum levels,"peripheral serotonin; 250 mg/kg, oral, compared with 500 mg/kg, FIG. 11",lesser extent
same,reduction of peripheral serotonin measured in serum,peripheral serotonin; 500 mg/kg orally twice in 20 hours,about 80%
same,serotonin serum levels decreased to % below normal,"peripheral serotonin; 500 mg/kg twice daily, oral, FIG. 11",80%
same,dose response of serum serotonin reduction,peripheral serotonin; 250 and 500 mg/kg versus control animals,dose response curve
same,peripheral serotonin upon oral feeding,peripheral serotonin; FIG. 11 legend,reduces
same,proliferation of osteoblasts,[3],induces
same,share of the oral amount transported into the circulation (blood),[4],3-5% and 5-10%
same,share of the oral amount transported into the circulation (blood),[4]; listed as Compound 1,5-10%
same,osteoid volume,osteoid volume,increases
